Patent US20040208864A1, “Methods of improving health-related quality of life in individuals with systemic lupus erythematosus” (priority 2002, published 2004)
Where “and” joins values, the source holds several entries; their conditions need not be identical. Equal entries are not always repeated. Entries after “also recorded” stand apart in the source; their conditions may differ. Where two headings read alike, the source gives them in different places.

How the values were obtained:
[1] = system: SLE patients; assay: Documented renal flares, Phase II/III study; assay type: in vivo, human
Protocol: (§1) The primary endpoint was the time to a documented renal flare, defined as reproducible increases from baseline in 24-hr proteinuria or serum creatinine >20% or at least 0.3 mg/dL, whichever was greater, accompanied by proteinuria, hematuria and/or red cell casts; or new onset or reproducible increase in hematuria accompanied by either an increase in 24-hr proteinuria or new red cell casts. Secondary outcome measures included the number of renal flares, time to institution of therapy with high dose corticosteroids (HDCC) and/or cyclophosphamide, incidence of treatment with HDCC and/or cyclophosphamide, and number of major SLE flares. HDCC was defined as an increase in oral, intravenous or intramuscular prednisone (or prednisone equivalent) greater than or equal to 15 mg per day from baseline to a dose greater than 20 mg per day for more than two days or any dose exceeding 200 mg in a single day. Topical, intra-articular, intra-lesional, or intra-ocular corticosteroid administration was excluded.
The incidences of renal flares in patients of both sustained reduction group and the other group were documented and the results are shown in Table 7 for Phase III and Table 8 for Phase II/III.

[2] = system: SLE patients; assay: SF-36 health-related quality of life, Phase II/III (90-05) trial of LJP 394 vs placebo; assay type: in vivo, human; details: for Longitudinal Role Emotional and MCS scores vs placebo: available data only
Protocol: Patients were excluded if they had evidence of a renal flare within three months of screening; were receiving prednisone or prednisone equivalent >20 mg/day, azathioprine >200 mg/day, methotrexate >25 mg/wk and/or cyclophosphamide at any dose within three months of screening; or a serum creatinine level ≧2.5 mg/dL. The study was conducted in the US and Europe according to Good Clinical Practices and all patients provided voluntary informed consent.
A pharmacodynamic assay has been developed to measure the binding affinity of patients' anti-dsDNA antibodies to LJP 394 (Sem D S, et al. (1999) Arch Biochem Biophys 372:62-8; McNeeley Pa., et al. (2001) Lupus 10:526-532). The assay measures the binding of the total serum immunoglobulin G [IgG] fraction to the dsDNA epitope on LJP 394. Binding of IgG to the LJP 394 epitope is measured using surface plasmon resonance and the concentration required to reach half maximal binding is determined. This concentration defines the apparent Kd′ of the binding interaction and reflects the titer-weighted average affinity of the patient's IgG fraction for the LJP 394 epitope. Using this assay, patients were segregated into “high affinity” and “low affinity” subgroups. The segregation value was selected by comparing the affinity measured before exposure to LJP 394 with that following 16 weekly treatments with LJP 394 100 mg or placebo. The high-affinity (HA) population was defined as those patients with antibody binding affinities [Kd′]≦0.8 mg/mL pre-treatment.
In this double-blind, randomized controlled, multicenter trial, intravenously administered LJP 394 was compared with placebo in SLE patients with prior renal involvement. Patients were randomized to receive LJP 394 100 mg as a 2 ml bolus intravenous injection on a weekly basis or placebo for 76 weeks. After initiation of the trial, the protocol was amended to include 8 week off treatment periods alternating with 12 weekly treatments with 50 mg (1 ml bolus injection) LJP 394 or placebo. The first 16 weeks, when patients received 100 mg LJP 394 or placebo weekly, was considered the ‘induction period’, followed by ‘maintenance,’ when patients alternated 8 off and 12 weeks on treatment. The 20-week cycles were to be repeated three times for a total of 60 weeks.
as §1
As a secondary objective, the SF-36 was included in the protocol for analysis, on an exploratory basis, to evaluate and interpret changes in health-related quality of life with active treatment compared with placebo. An additional secondary objective was to evaluate changes in health-related quality of life before and after a documented renal flare, with or without prior treatment with HDCC. The SF-36 was administered at baseline and weeks 16, 24, 36, 44, 56, 64, 76, or at early treatment withdrawal. All patients with a baseline and at least one post treatment health-related quality of life assessment were included in the analyses. […]

[3] = system: anti-dsDNA; details: patients with SLE; cited from earlier work
[4] = system: B cells; details: mice; cited from earlier work
[5] = system: anti-dsDNA; details: murine models of SLE; cited from earlier work
[6] = High Affinity, no flares, induction phase
[7] = High affinity population, baseline (pre-treatment)
[8] = High affinity population, baseline to Week 16
[9] = ITT population, baseline (pre-treatment)
[10] = ITT population, baseline to Week 16
[11] = ITT, no flares, induction phase
[12] = Phase II/III, before renal flare
[13] = active treatment, pre vs post renal flare
[14] = patients with documented renal flare (n=37), before flare

With “abetimus sodium (sense GTGTGTGTGTGTGTGTGTGT; antisense CACACACACACACACACACA; sense: DNA, backbone not given here; antisense: DNA, backbone and methylation of C not given here; four deoxynucleotide duplexes bound to triethylene glycol valency platform) [LJP 394, tetravalent conjugate: four (CA)10.(TG)10 double-stranded 20-mer oligonucleotides on a triethylene glycol based valency platform]” the “# Renal flares in Other patients” value ([1]; Phase II/III) was 6, the “# Renal flares in patients with sustained reduction” value ([1]; Phase II/III) was 1 and the “Time to and number of renal flares compared with placebo” value ([1]; high affinity population) was “significant reduction”. The “Time to renal flare between treatment groups” value ([1]; intent-to-treat population, interim analysis) was “unlikely to reach statistical significance”, the “Difference in Role Emotional change scores between treatment groups” value [2, 6] was 13.2 and the “Difference in Social Functioning change scores between treatment groups” value [2, 6] was 5.5. The “SF-36 MCS Baseline Mean” value [2, 7] was 48.21, the “SF-36 PCS Baseline Mean” value [2, 7] was 41.13 and the “Difference between MCS change scores, active vs placebo” value [2, 8] was 2.2 points. For the same substance, the “Difference in Role Emotional change scores, active vs placebo” value [2, 8] was 15.9 points, the “Difference in Role Physical change scores, active vs placebo” value [2, 8] was 8.5 points and the “Difference in Social Functioning change scores, active vs placebo” value [2, 8] was 5.0. For the same substance, the “Magnitude of differences between active and placebo on Role Physical” value [2, 8] was 4.4 points, the “Mean change in SF-36 Social Functioning score” value [2, 8] was 4.9 points and the “SF-36 MCS Mean % Change” value [2, 8] was 6.10%. The “SF-36 MCS Mean Change” value [2, 8] was 1.49, the “SF-36 PCS Mean % Change” value [2, 8] was 7.17% and the “SF-36 PCS Mean Change” value [2, 8] was 1.88. The “Patients reporting improvements in Role Emotional scores greater than the MCID” value ([2]; ITT population, Week 16) was 24.2%, the “Baseline Role Emotional score” value [2, 9] was 69.1 and the “SF-36 MCS Baseline Mean” value [2, 9] was 48.9 and 48.91. For the same substance, the “SF-36 PCS Baseline Mean” value [2, 9] was 41.0 and 41.03, the “Difference in MCS change, active vs placebo” value [2, 10] was 2.1 and the “Difference in Role Emotional change scores, active vs placebo” value [2, 10] was 15.8 points. The “Difference in Role Physical change scores, active vs placebo” value [2, 10] was 8.9 points, the “SF-36 MCS Mean % Change” value [2, 10] was 5.53% and the “SF-36 MCS Mean Change” value [2, 10] was 1.29. The “SF-36 PCS Mean % Change” value [2, 10] was 6.70%, the “SF-36 PCS Mean Change” value [2, 10] was 1.76 and the “Difference in Social Functioning change scores between treatment groups” value ([2]; ITT, induction phase (16 weeks)) was 4.7. For the same substance, the “Difference in Role Emotional change scores between treatment groups” value ([2]; ITT, no HDCC, induction phase) was 9.7, the “Difference in Social Functioning change scores between treatment groups” value ([2]; ITT, no HDCC, induction phase) was 5.9 and the “Difference in Role Emotional change scores between treatment groups” value [2, 11] was 12.3. The “Difference in Social Functioning change scores between treatment groups” value [2, 11] was 5.0, the “Mean SF-36 domain scores after renal flare compared with placebo” value ([2]; Phase II/III, after renal flare) was “remained better than placebo patients; also recorded: higher for LJP394-treated patients in all domains” and the “Mean SF-36 Pain domain score before renal flare” value [2, 12] was 60.13. The “Mean SF-36 domain scores before renal flare compared with placebo” value [2, 12] was “better scores than placebo in all domains except pain”, the “Mean SF-36 domain scores before renal flare compared with placebo” value ([2]; Phase II/III, before renal flare, listed as LJP394) was “higher for LJP394-treated patients in all domains except pain” and the “SF-36 domain score changes pre/post renal flare compared with placebo” value ([2]; Phase II/III, pre vs post renal flare) was “stabilization or improvement in all but one domain”. The “SF-36 domain score changes pre/post renal flare compared with placebo” value ([2]; Phase II/III, pre vs post renal flare, listed as LJP394) was “all eight domains were more favorable; also recorded: all 8 domains were more favorable”, the “Change in Bodily Pain domain score before to after documented renal flare” value [2, 13] was 12.3 points and the “Change in Role Emotional domain score before to after documented renal flare” value [2, 13] was 2.1. The “Change in Social Functioning domain score before to after documented renal flare” value [2, 13] was 2.3, the “Change in Vitality domain score before to after documented renal flare” value [2, 13] was 4.1 and the “Longitudinal Role Emotional and MCS scores vs placebo” value ([2]; after the 16 week induction phase) was “marked improvement”. For the same substance, the “Longitudinal Role Emotional and MCS scores vs placebo” value ([2]; by week 36 of treatment) was “comparable between the two groups”, the “Role Emotional scores difference, LJP 394 versus placebo” value ([2]; patients with data pre- and post-renal flares) was 20.2 points and the “Pre-flare difference between treatment groups in MCS summary score” value [2, 14] was 4.1 points. The “Pre-flare difference between treatment groups in Role Emotional score” value [2, 14] was 15.0 points, the “Pre-flare difference between treatment groups in Vitality score” value [2, 14] was 9.5 points and the “Post-flare difference in Role Emotional scores favoring active treatment” value ([2]; patients with documented renal flare, post-flare) was 37.7 points. For the same substance, the “Effect on anti-dsDNA titers” value [3] was “selectively reduces anti-dsDNA titers”, the “Induction of antigen-specific B-cell tolerance” value [4] was “induce antigen-specific B-cell tolerance” and the “Effect on anti-dsDNA titers” value [5] was “selectively reduces anti-dsDNA titers”.
